Test results as given in patent EP0555116B1, “Compositions based on antiseptics and their applications” (HUTCHINSON, priority 1992, dated 1993).
Read-outs that look alike come from different tables or passages of the source.

What was measured:
S. aureus ATCC 6538 = assay: Growth inhibition test (DGHM, Essai 2, Tables A-C), 72 h at 37°C; non/A/B/C = without or with inactivating substances A, B, C; type: cell-based, Staphylococcus aureus
Description: (§1) Un autre essai a été réalisé à partir des solutions suivantes : • 100 ml d'une solution à 0,1 % de digluconate de chlorhexidine (pH 6) et • 100 ml d'une solution à 0,1 % de Bardac 22®.
(§2) L'activité de ces solutions, seules ou en combinaison a été plus particulièrement testée vis-à-vis de Staphylococcus aureus ATCC 6538, Escherichia coli ATCC 11229 et Candida albicans ATCC 10231.
(§3) Les tests ont été réalisés conformément au protocole décrit dans le Chapitre I/2.1 et 2.2 de Richtlinien für die Prüfung und Bewertung chemischer Desinfektionsverfahren der DGHM, Stand 1.1., 1981).
(§4) Les Tableaux A, B et C illustrent respectivement l'activité bactéricide et fongicide d'une solution aqueuse à 0,1 % de digluconate de chlorhexidine, d'une solution aqueuse à 0,1 % de Bardac 22® et d'un mélange à part égale des deux composés. Les protocoles dont ces Tableaux illustrent les résultats comprennent une incubation de 72 heures à 37°C et l'utilisation, comme témoins, des substances inactivantes suivantes : A : Tween® 80 3 % + lécithine 0,3 % + cystéine 0,1 %; B : Tween® 80 3 % + saponine 3 % + cystéine 0,1 % + histidine 0,1 %; C : Tween® 80 3 % + lécithine 0,3 % + histidine 0,1 % + thiosulfate de sodium 0,5 %.
(§5) Dans ces Tableaux, le signe "+" indique une croissance et le signe "-" l'absence de croissance.

E. coli ATCC 11229 = assay: as above; type: cell-based, Escherichia coli
Description: as §1, §2, §3, §4, §5

[1] = tested on: Candida albicans ATCC 1031; assay: as above; type: cell-based
Description: Un autre essai a été réalisé à partir des solutions suivantes : • 100 ml d'une solution à 0,1 % de digluconate de chlorhexidine (pH 6) et • 100 ml d'une solution à 0,1 % de Bardac 22®. […]
as §3, §4, §5

spermatozoïdes = assay: Spermicidal action: vitality of spermatozoa (eosin-nigrosin, 100 spermatozoa examined); type: cell-based; details: Homo sapiens, Sperm; for viability at 0.4 %: read-out: vitalité des spermatozoïdes, solution 0,4 %; for viability at 0.6 %: read-out: vitalité des spermatozoïdes, solution 0,6 %; for viability at 0.8 %: read-out: vitalité des spermatozoïdes, solution 0,8 %; for viability at 1 %: read-out: vitalité des spermatozoïdes, solution 1 %
From the text: Les différents échantillons de sperme (une goutte de sperme/échantillon) sont obtenus à partir de volontaires sains.
Une goutte de sperme est traitée par l'éosinenigrosine. Un frottis est ensuite réalisé et cent spermatozoïdes sont examinés au microscope. Les cellules mortes sont colorées en rouge, soit totalement, soit partiellement. Les cellules vivantes sont incolores.
Les substances étudiées ont été, le Bardac® et le digluconate de chlorhexidine, testés seuls et en association conformément à l'invention. Les différentes étapes du protocole sont indiquées aux Tableaux IV à VI.
Le temps de contact maximum des différentes substances et du sperme a été limité à 3 minutes afin de garantir l'efficacité de la méthode dans les conditions d'utilisation. La concentration des solutions actives dans le sperme a été limitée à 10 % afin de diminuer les risques de toxicité des produits pour les muqueuses. TABLEAU IV

[2] = 1 min, 1 Min, 5 % dans le sperme
[3] = 1 min, 1 Min, 10 % dans le sperme
[4] = 0.05 h, 3 Min, 5 % dans le sperme
[5] = 0.05 h, 3 Min, 10 % dans le sperme

CCCCCCCCCC[N+](C)(C)CCCCCCCCCC [Bardac®, chlorure de didécyldiméthylammonium] was tested, and the croissance (S. aureus ATCC 6538; Conc. 0,1 % (vol/vol), A) was “+”, the croissance (S. aureus ATCC 6538; Conc. 0,1 % (vol/vol), B) was “+” and the croissance (S. aureus ATCC 6538; Conc. 0,1 % (vol/vol), C) was “+”. For the same compound, the croissance (S. aureus ATCC 6538; Conc. 0,1 % (vol/vol), non) was “-”, the croissance (S. aureus ATCC 6538; Conc. 0,05 % (vol/vol), A) was “+” and the croissance (S. aureus ATCC 6538; Conc. 0,5 % (vol/vol), A) was “+”. The croissance (S. aureus ATCC 6538; Conc. 0,05 % (vol/vol), B) was “+”, the croissance (S. aureus ATCC 6538; Conc. 0,5 % (vol/vol), B) was “+” and the croissance (S. aureus ATCC 6538; Conc. 0,05 % (vol/vol), C) was “+”. For the same compound, the croissance (S. aureus ATCC 6538; Conc. 0,5 % (vol/vol), C) was “+”, the croissance (S. aureus ATCC 6538; Conc. 0,05 % (vol/vol), non) was “+” and the croissance (S. aureus ATCC 6538; Conc. 0,5 % (vol/vol), non) was “-”. The croissance (S. aureus ATCC 6538; Conc. 1,0 % (vol/vol), A) was “+”, the croissance (S. aureus ATCC 6538; Conc. 1,0 % (vol/vol), B) was “+” and the croissance (S. aureus ATCC 6538; Conc. 1,0 % (vol/vol), C) was “+”. The croissance (S. aureus ATCC 6538; Conc. 1,0 % (vol/vol), non) was “-”, the croissance (S. aureus ATCC 6538; Conc. 0,00625 % (vol/vol), A) was “+” and the croissance (S. aureus ATCC 6538; Conc. 0,00625 % (vol/vol), B) was “+”. For the same compound, the croissance (S. aureus ATCC 6538; Conc. 0,00625 % (vol/vol), C) was “+”, the croissance (S. aureus ATCC 6538; Conc. 0,00625 % (vol/vol), non) was “+” and the croissance (S. aureus ATCC 6538; Conc. 0,0125 % (vol/vol), A) was “+”. The croissance (S. aureus ATCC 6538; Conc. 0,0125 % (vol/vol), B) was “+”, the croissance (S. aureus ATCC 6538; Conc. 0,0125 % (vol/vol), C) was “+” and the croissance (S. aureus ATCC 6538; Conc. 0,0125 % (vol/vol), non) was “+”. The croissance (S. aureus ATCC 6538; Conc. 0,025 % (vol/vol), A) was “+”, the croissance (S. aureus ATCC 6538; Conc. 0,025 % (vol/vol), B) was “+” and the croissance (S. aureus ATCC 6538; Conc. 0,025 % (vol/vol), C) was “+”. The croissance (S. aureus ATCC 6538; Conc. 0,025 % (vol/vol), non) was “+”, the “concentration en substance active inhibant la croissance” value (S. aureus ATCC 6538; antiseptique seul) was 0,0001% and the croissance (E. coli ATCC 11229; Conc. 0,1 % (vol/vol), A) was “+”. The croissance (E. coli ATCC 11229; Conc. 0,1 % (vol/vol), B) was “+”, the croissance (E. coli ATCC 11229; Conc. 0,1 % (vol/vol), C) was “+” and the croissance (E. coli ATCC 11229; Conc. 0,1 % (vol/vol), non) was “+”. For the same compound, the croissance (E. coli ATCC 11229; Conc. 0,05 % (vol/vol), A) was “+”, the croissance (E. coli ATCC 11229; Conc. 0,5 % (vol/vol), A) was “+” and the croissance (E. coli ATCC 11229; Conc. 0,05 % (vol/vol), B) was “+”. The croissance (E. coli ATCC 11229; Conc. 0,5 % (vol/vol), B) was “+”, the croissance (E. coli ATCC 11229; Conc. 0,05 % (vol/vol), C) was “+” and the croissance (E. coli ATCC 11229; Conc. 0,5 % (vol/vol), C) was “+”. The croissance (E. coli ATCC 11229; Conc. 0,05 % (vol/vol), non) was “+”, the croissance (E. coli ATCC 11229; Conc. 0,5 % (vol/vol), non) was “-” and the croissance (E. coli ATCC 11229; Conc. 1,0 % (vol/vol), A) was “+”. The croissance (E. coli ATCC 11229; Conc. 1,0 % (vol/vol), B) was “+”, the croissance (E. coli ATCC 11229; Conc. 1,0 % (vol/vol), C) was “+” and the croissance (E. coli ATCC 11229; Conc. 1,0 % (vol/vol), non) was “-”. For the same compound, the croissance (E. coli ATCC 11229; Conc. 0,00625 % (vol/vol), A) was “+”, the croissance (E. coli ATCC 11229; Conc. 0,00625 % (vol/vol), B) was “+” and the croissance (E. coli ATCC 11229; Conc. 0,00625 % (vol/vol), C) was “+”. The croissance (E. coli ATCC 11229; Conc. 0,00625 % (vol/vol), non) was “+”, the croissance (E. coli ATCC 11229; Conc. 0,0125 % (vol/vol), A) was “+” and the croissance (E. coli ATCC 11229; Conc. 0,0125 % (vol/vol), B) was “+”. For the same compound, the croissance (E. coli ATCC 11229; Conc. 0,0125 % (vol/vol), C) was “+”, the croissance (E. coli ATCC 11229; Conc. 0,0125 % (vol/vol), non) was “+” and the croissance (E. coli ATCC 11229; Conc. 0,025 % (vol/vol), A) was “+”. The croissance (E. coli ATCC 11229; Conc. 0,025 % (vol/vol), B) was “+”, the croissance (E. coli ATCC 11229; Conc. 0,025 % (vol/vol), C) was “+” and the croissance (E. coli ATCC 11229; Conc. 0,025 % (vol/vol), non) was “+”. The “concentration en substance active inhibant la croissance” value (E. coli ATCC 11229; antiseptique seul) was 0,0005%, the croissance ([1]; Conc. 0,1 % (vol/vol), A) was “+” and the croissance ([1]; Conc. 0,1 % (vol/vol), B) was “+”. The croissance ([1]; Conc. 0,1 % (vol/vol), C) was “+”, the croissance ([1]; Conc. 0,1 % (vol/vol), non) was “-” and the croissance ([1]; Conc. 0,05 % (vol/vol), A) was “+”. For the same compound, the croissance ([1]; Conc. 0,5 % (vol/vol), A) was “+”, the croissance ([1]; Conc. 0,05 % (vol/vol), B) was “+” and the croissance ([1]; Conc. 0,5 % (vol/vol), B) was “+”. The croissance ([1]; Conc. 0,05 % (vol/vol), C) was “+”, the croissance ([1]; Conc. 0,5 % (vol/vol), C) was “+” and the croissance ([1]; Conc. 0,05 % (vol/vol), non) was “+”. For the same compound, the croissance ([1]; Conc. 0,5 % (vol/vol), non) was “-”, the croissance ([1]; Conc. 1,0 % (vol/vol), A) was “+” and the croissance ([1]; Conc. 1,0 % (vol/vol), B) was “+”. For the same compound, the croissance ([1]; Conc. 1,0 % (vol/vol), C) was “+”, the croissance ([1]; Conc. 1,0 % (vol/vol), non) was “-” and the croissance ([1]; Conc. 0,00625 % (vol/vol), A) was “+”. For the same compound, the croissance ([1]; Conc. 0,00625 % (vol/vol), B) was “+”, the croissance ([1]; Conc. 0,00625 % (vol/vol), C) was “+” and the croissance ([1]; Conc. 0,00625 % (vol/vol), non) was “+”. For the same compound, the croissance ([1]; Conc. 0,0125 % (vol/vol), A) was “+”, the croissance ([1]; Conc. 0,0125 % (vol/vol), B) was “+” and the croissance ([1]; Conc. 0,0125 % (vol/vol), C) was “+”. The croissance ([1]; Conc. 0,0125 % (vol/vol), non) was “+”, the croissance ([1]; Conc. 0,025 % (vol/vol), A) was “+” and the croissance ([1]; Conc. 0,025 % (vol/vol), B) was “+”. For the same compound, the croissance ([1]; Conc. 0,025 % (vol/vol), C) was “+”, the croissance ([1]; Conc. 0,025 % (vol/vol), non) was “+” and the “concentration en substance active inhibant la croissance” value ([1]; antiseptique seul) was 0,0001%. The viability at 0.4 % (spermatozoïdes; [2]) was 10.7 ± 7.6%, the viability at 0.4 % (spermatozoïdes; [3]) was 5 ± 6.4% and the viability at 0.6 % (spermatozoïdes; [2]) was 10.5 ± 9.7%. For the same compound, the viability at 0.6 % (spermatozoïdes; [3]) was 9.2 ± 12.9%, the viability at 0.8 % (spermatozoïdes; [2]) was 9.7 ± 10.2% and the viability at 0.8 % (spermatozoïdes; [3]) was 1.8 ± 2.5%. It also gave a viability at 1 % (spermatozoïdes; [2]) of 0%, a viability at 1 % (spermatozoïdes; [3]) of 0% and a viability at 0.4 % (spermatozoïdes; [4]) of 0.8 ± 1.2%. The viability at 0.4 % (spermatozoïdes; [5]) was 0.8 ± 1%, the viability at 0.6 % (spermatozoïdes; [4]) was 2.2 ± 4.5% and the viability at 0.6 % (spermatozoïdes; [5]) was 0.4 ± 0.9%. For the same compound, the viability at 0.8 % (spermatozoïdes; [4]) was 0%, the viability at 0.8 % (spermatozoïdes; [5]) was 0% and the viability at 1 % (spermatozoïdes; [4]) was 0%. For the same compound, the viability at 1 % (spermatozoïdes; [5]) was 0%.
